Legend:
Format in all cases: in vivo
Settings in all cases: 250 g/ha, after 13 days
[1] = system: Abutilon theophrasti (ABUTH); test: B2 Post-Emergence Efficacy Test 2
Description: (§1) Seeds of a variety of test species are sown in standard soil in pots:— Amaranthus retoflexus (AMARE), Setaria faberi (SETFA), Echinochloa crus-galli (ECHCG), Ipomoea hederacea (IPOHE), Zea Mays (ZEAMX), Abutilon theophrasti (ABUTH). After 8 days cultivation (post-emergence) under controlled conditions in a glasshouse (at 24/16° C., day/night; 14 hours light; 65% humidity), the plants are sprayed with an aqueous spray solution derived from the formulation of the technical active ingredient in acetone/water (50:50) solution containing 0.5% Tween 20 (polyoxyethylene sorbitan monolaurate, CAS RN 9005-64-5). Compounds are applied at 250 g/ha. The test plants are then grown in a glasshouse under controlled conditions in a glasshouse (at 24/16° C., day/night; 14 hours light; 65% humidity) and watered twice daily. After 13 days, the test is evaluated for the percentage damage caused to the plant. The biological activities are assessed on a five point scale (5=80-100%; 4=60-79%; 3=40-59%; 2=20-39%; 1=0-19%). A blank value in the table is indicative that the compound was not tested on that species.

[2] = system: Amaranthus retoflexus (AMARE); test: B2 Post-Emergence Efficacy Test 2
Description: as §1

[3] = system: Echinochloa crus-galli (ECHCG); test: B2 Post-Emergence Efficacy Test 2
Description: as §1

[4] = system: Ipomoea hederacea (IPOHE); test: B2 Post-Emergence Efficacy Test 2
Description: as §1

Setaria faberi (SETFA) [5] = test: B2 Post-Emergence Efficacy Test 2
Description: as §1

Zea Mays (ZEAMX) [6] = test: B2 Post-Emergence Efficacy Test 2
Description: as §1

[7] = system: Abutilon theophrasti (ABUTH); test: B4 Pre-Emergence Efficacy Test 2
Description: (§2) Seeds of a variety of test species were sown in standard soil in pots: Amaranthus retoflexus (AMARE), Setaria faberi (SETFA), Echinochloa crus-galli (ECHCG), Ipomoea hederacea (IPOHE), Zea Mays (ZEAMX), Abutilon theophrasti (ABUTH). After cultivation for one day (pre-emergence) under controlled conditions in a glasshouse (at 24/16° C., day/night; 14 hours light; 65% humidity), the plants were sprayed with an aqueous spray solution derived from the formulation of the technical active ingredient in acetone/water (50:50) solution containing 0.5% Tween 20 (polyoxyethelyene sorbitan monolaurate, CAS RN 9005-64-5). Compounds are applied at 250 g/ha. The test plants were then grown in a glasshouse under controlled conditions (at 24/16° C., day/night; 14 hours light; 65% humidity) and watered twice daily. After 13 days, the test is evaluated for the percentage damage caused to the plant. The biological activities are assessed on a five point scale (5=80-100%; 4=60-79%; 3=40-59%; 2=20-39%; 1=0-19%). A blank value in the table is indicative that the compound was not tested on that species.

[8] = system: Amaranthus retoflexus (AMARE); test: B4 Pre-Emergence Efficacy Test 2
Description: as §2

[9] = system: Echinochloa crus-galli (ECHCG); test: B4 Pre-Emergence Efficacy Test 2
Description: as §2

[10] = system: Ipomoea hederacea (IPOHE); test: B4 Pre-Emergence Efficacy Test 2
Description: as §2

Setaria faberi (SETFA) [11] = test: B4 Pre-Emergence Efficacy Test 2
Description: as §2

Zea Mays (ZEAMX) [12] = test: B4 Pre-Emergence Efficacy Test 2
Description: as §2

Row | Structure (SMILES) | percentage damage caused to the plant, five point scale, ABUTH [1] | percentage damage caused to the plant, five point scale, AMARE [2] | percentage damage caused to the plant, five point scale, ECHCG [3] | percentage damage caused to the plant, five point scale, IPOHE [4] | percentage damage caused to the plant, five point scale, SETFA (Setaria faberi (SETFA) [5]) | percentage damage caused to the plant, five point scale, ZEAMX (Zea Mays (ZEAMX) [6]) | percentage damage caused to the plant, five point scale, ABUTH [7] | percentage damage caused to the plant, five point scale, AMARE [8] | percentage damage caused to the plant, five point scale, ECHCG [9] | percentage damage caused to the plant, five point scale, IPOHE [10] | percentage damage caused to the plant, five point scale, SETFA (Setaria faberi (SETFA) [11]) | percentage damage caused to the plant, five point scale, ZEAMX (Zea Mays (ZEAMX) [12])
1 | Cc1nn(C)c(=O)c(-c2c(F)ccc(Cl)c2CCc2ccc3ccn(C)c3c2)c1O [Compound 1.355] | 3 (3=40-59%) | 4 (4=60-79%) | 1 (1=0-19%) | 4 (4=60-79%) | 2 (2=20-39%) | 1 (1=0-19%) | 0 | 3 (3=40-59%) | 0 | 2 (2=20-39%) | 1 (1=0-19%) | 1 (1=0-19%)
2 | Cc1nn(C)c(=O)c(-c2c(F)ccc(Cl)c2CCc2nn(C)c3ccccc23)c1O [Compound 1.344] | 4 (4=60-79%) | 3 (3=40-59%) | 2 (2=20-39%) | 3 (3=40-59%) | – | 1 (1=0-19%) | 4 (4=60-79%) | 3 (3=40-59%) | 2 (2=20-39%) | 3 (3=40-59%) | 2 (2=20-39%) | 0
3 | Cc1nn(C)c(=O)c(-c2c(F)ccc(Cl)c2CCc2cnc3c(ccn3C)c2)c1O [Compound 1.345] | 4 (4=60-79%) | 4 (4=60-79%) | 3 (3=40-59%) | 4 (4=60-79%) | 4 (4=60-79%) | 2 (2=20-39%) | 4 (4=60-79%) | 5 (5=80-100%) | 2 (2=20-39%) | 5 (5=80-100%) | 5 (5=80-100%) | 1 (1=0-19%)
4 | Cc1nn(C)c(=O)c(-c2c(F)ccc(Cl)c2CCc2ccc3ccsc3c2)c1O [Compound 1.347] | 4 (4=60-79%) | 4 (4=60-79%) | 4 (4=60-79%) | 4 (4=60-79%) | 4 (4=60-79%) | 4 (4=60-79%) | 5 (5=80-100%) | 5 (5=80-100%) | 2 (2=20-39%) | 5 (5=80-100%) | 3 (3=40-59%) | 3 (3=40-59%)
5 | Cc1nn(C)c(=O)c(-c2c(F)ccc(Cl)c2CCc2ccc3c(ccn3C)c2)c1O [Compound 1.356] | 4 (4=60-79%) | 5 (5=80-100%) | 4 (4=60-79%) | 4 (4=60-79%) | 5 (5=80-100%) | 2 (2=20-39%) | 1 (1=0-19%) | 3 (3=40-59%) | 1 (1=0-19%) | 2 (2=20-39%) | 1 (1=0-19%) | 0
6 | Cc1nn(C)c(=O)c(-c2c(F)ccc(Cl)c2CCc2ccc3scnc3c2)c1O [Compound 1.350, 4-[2-[2-(1,3-benzothiazol-5-yl)ethyl]-3-chloro-6-fluoro-phenyl]-5-hydroxy-2,6-dimethyl-pyridazin-3-one] | 5 (5=80-100%) | 4 (4=60-79%) | 4 (4=60-79%) | 3 (3=40-59%) | 4 (4=60-79%) | 3 (3=40-59%) | 5 (5=80-100%) | 5 (5=80-100%) | 5 (5=80-100%) | 5 (5=80-100%) | 5 (5=80-100%) | 4 (4=60-79%)
7 | Cc1nn(C)c(=O)c(-c2c(F)ccc(Cl)c2CCc2cccc3ccccc23)c1O [Compound 1.044] | 3 (3=40-59%) | 3 (3=40-59%) | 0 | 4 (4=60-79%) | 0 | 1 (1=0-19%) | 3 (3=40-59%) | 2 (2=20-39%) | 0 | 3 (3=40-59%) | 0 | 1 (1=0-19%)
8 | Cc1nn(C)c(=O)c(-c2c(F)ccc(Cl)c2CCc2ccc3c(c2)OC(C)(C)O3)c1O [Compound 1.361, [3-chloro-2-[2-(2,2-dimethyl-1,3-benzodioxol-5-yl)ethyl]-6-fluoro-phenyl]-5-hydroxy-2,6-dimethyl-pyridazin-3-one] | 5 (5=80-100%) | 3 (3=40-59%) | 4 (4=60-79%) | 5 (5=80-100%) | 5 (5=80-100%) | 4 (4=60-79%) | 5 (5=80-100%) | 4 (4=60-79%) | 3 (3=40-59%) | 4 (4=60-79%) | 5 (5=80-100%) | 1 (1=0-19%)
9 | Cc1nn(C)c(=O)c(-c2c(F)ccc(Cl)c2CCc2ccc3c(c2)OC(F)(F)O3)c1O [Compound 1.342] | 5 (5=80-100%) | 5 (5=80-100%) | 5 (5=80-100%) | 5 (5=80-100%) | 4 (4=60-79%) | 4 (4=60-79%) | 4 (4=60-79%) | 5 (5=80-100%) | 5 (5=80-100%) | – | 5 (5=80-100%) | 1 (1=0-19%)
